Data taken from ChEMBL document CHEMBL5614384, “Synthesis and antiproliferative activity of (-)-cleistenolide, (6S)-cleistenolide and 4-substituted cleistenolide analogues” (Bioorg Med Chem, 2024).

Assays:
A549 = experiment: Antiproliferative activity against human A549 cells assessed as inhibition of cell growth incubated for 72 hrs by MTT assay; format: functional, cell-based; conditions: A549, 72 h
Raji [1] = experiment: Antiproliferative activity against human Raji cells assessed as inhibition of cell growth incubated for 72 hrs by MTT assay; format: functional, cell-based
K562 [2] = experiment: Antiproliferative activity against human K562 cells assessed as inhibition of cell growth incubated for 72 hrs by MTT assay; format: functional, cell-based; conditions: K562, 72 h
HL-60 = experiment: Antiproliferative activity against human HL-60 cells assessed as inhibition of cell growth incubated for 72 hrs by MTT assay; format: functional, cell-based; conditions: HL-60, 72 h
Jurkat = experiment: Antiproliferative activity against human Jurkat cells assessed as inhibition of cell growth incubated for 72 hrs by MTT assay; format: functional, cell-based
MCF7 [3] = experiment: Antiproliferative activity against estrogen receptor positive human MCF7 cells assessed as inhibition of cell growth incubated for 72 hrs by MTT assay; format: functional, cell-based; conditions: MCF7, 72 h
HeLa [4] = experiment: Antiproliferative activity against human HeLa cells assessed as inhibition of cell growth incubated for 72 hrs by MTT assay; format: functional, cell-based
MDA-MB-231 = experiment: Antiproliferative activity against estrogen receptor negative human MDA-MB-231 cells assessed as inhibition of cell growth incubated for 72 hrs by MTT assay; format: functional, cell-based; conditions: MDA-MB-231, 72 h
[5] = (§1) Cytotoxicity against human MRC5 cells assessed as inhibition of cell growth incubated for 72 hrs by MTT assay; format: toxicity, cell-based; conditions: human, MRC5 cells
K562 [6] = experiment: Potency index, ratio of cleistenolide IC50 to test compound IC50 for antiproliferative activity against human K562 cells assessed as inhibition of cell growth incubated for 72 hrs by MTT assay; format: functional
MRC5 = experiment: as §1; format: toxicity, cell-based; conditions: mrc5
MCF7 [7] = experiment: Potency index, ratio of cleistenolide IC50 to test compound IC50 for antiproliferative activity against human MCF7 cells assessed as inhibition of cell growth incubated for 72 hrs by MTT assay; format: functional
HeLa [8] = experiment: Potency index, ratio of cleistenolide IC50 to test compound IC50 for antiproliferative activity against human HeLa cells assessed as inhibition of cell growth incubated for 72 hrs by MTT assay; format: functional
Raji [9] = experiment: Potency index, ratio of cleistenolide IC50 to test compound IC50 for antiproliferative activity against human Raji cells assessed as inhibition of cell growth incubated for 72 hrs by MTT assay; format: functional

## CC(=O)OC[C@@H](O)[C@H]1OC(=O)C=C[C@H]1O
A549
  IC50: 12.5 µM
Raji [1]
  IC50: 19.8 µM
K562 [2]
  IC50: 1.18 µM
HL-60
  IC50: 9.62 µM
Jurkat
  IC50: 17.5 µM
MCF7 [3]
  IC50: 4.58 µM
HeLa [4]
  IC50: 5.36 µM
MDA-MB-231
  IC50: 45.6 µM
[5]
  IC50 at 72 h: > 100 µM
K562 [6]
  Ratio IC50: 5

## CC(=O)OC[C@@H](OC(C)=O)[C@H]1OC(=O)C=C[C@H]1OCc1ccccc1
A549
  IC50: 23.2 µM
Raji [1]
  IC50: 11.7 µM
K562 [2]
  IC50: 1.12 µM
HL-60
  IC50: 1.39 µM
Jurkat
  IC50: 19 µM
MCF7 [3]
  IC50: 15.5 µM
HeLa [4]
  IC50: 6.17 µM
MDA-MB-231
  IC50: 16.1 µM
[5]
  IC50 at 72 h: > 100 µM
K562 [6]
  Ratio IC50: 5

## COc1ccc(/C=C/C(=O)O[C@@H]2C=CC(=O)O[C@@H]2[C@@H](COC(=O)c2ccccc2)OC(C)=O)cc1
A549
  IC50: 41.6 µM
Raji [1]
  IC50: 25.7 µM
K562 [2]
  IC50: 1.28 µM
HL-60
  IC50: 15.3 µM
Jurkat
  IC50: 24.1 µM
MCF7 [3]
  IC50: 12.8 µM
HeLa [4]
  IC50: 15.6 µM
MDA-MB-231
  IC50: 26.6 µM
[5]
  IC50 at 72 h: > 100 µM
K562 [6]
  Ratio IC50: 5

## COc1ccc(/C=C/C(=O)O[C@@H]2C=CC(=O)O[C@@H]2[C@@H](COC(=O)c2ccccc2)OC(C)=O)cc1OC
A549
  IC50: 13.6 µM
Raji [1]
  IC50: 26.4 µM
K562 [2]
  IC50: 4.52 µM
HL-60
  IC50: 5.75 µM
Jurkat
  IC50: 22.6 µM
MCF7 [3]
  IC50: 6.35 µM
HeLa [4]
  IC50: 8.73 µM
MDA-MB-231
  IC50: 15.9 µM
[5]
  IC50 at 72 h: > 100 µM

## CC(=O)O[C@H](COC(=O)c1ccccc1)[C@H]1OC(=O)C=C[C@H]1OS(C)(=O)=O
A549
  IC50: 11.3 µM
Raji [1]
  IC50: 17 µM
K562 [2]
  IC50: 8.78 µM
HL-60
  IC50: 3.63 µM
Jurkat
  IC50: 15.2 µM
MCF7 [3]
  IC50: 3.26 µM
HeLa [4]
  IC50: 14.2 µM
MDA-MB-231
  IC50: 14.9 µM
MRC5
  IC50: > 100 µM
MCF7 [7]
  Ratio IC50: ~8

## O=C1C=C[C@@H](O)[C@@H]([C@@H](O)COC(=O)c2ccccc2)O1
A549
  IC50: 19.9 µM
Raji [1]
  IC50: 11.3 µM
K562 [2]
  IC50: 1.23 µM
HL-60
  IC50: 12.3 µM
Jurkat
  IC50: 15.3 µM
MCF7 [3]
  IC50: 10.5 µM
HeLa [4]
  IC50: 4.69 µM
MDA-MB-231
  IC50: 14.1 µM
[5]
  IC50 at 72 h: > 100 µM
K562 [6]
  Ratio IC50: 5

## CC(=O)O[C@@H](COC(=O)c1ccccc1)[C@H]1OC(=O)C=C[C@H]1OC(C)=O
A549
  IC50: 16.2 µM
Raji [1]
  IC50: 13.1 µM
K562 [2]
  IC50: 5.58 µM
HL-60
  IC50: 9.84 µM
Jurkat
  IC50: 15.5 µM
MCF7 [3]
  IC50: 15.1 µM
HeLa [4]
  IC50: 6.79 µM
MDA-MB-231
  IC50: 23.7 µM
[5]
  IC50 at 72 h: 98.2 µM

## COc1cccc(C(=O)O[C@@H]2C=CC(=O)O[C@@H]2[C@@H](COC(=O)c2ccccc2)OC(C)=O)c1
A549
  IC50: 12.1 µM
Raji [1]
  IC50: 25.2 µM
K562 [2]
  IC50: 1.59 µM
HL-60
  IC50: 1.7 µM
Jurkat
  IC50: 25.3 µM
MCF7 [3]
  IC50: 8.79 µM
HeLa [4]
  IC50: 9.43 µM
MDA-MB-231
  IC50: 25.6 µM
[5]
  IC50 at 72 h: > 100 µM
K562 [6]
  Ratio IC50: 5

## O=C1C=C[C@@H](OCc2ccccc2)[C@@H]([C@@H](COC(=O)c2ccccc2)OCc2ccccc2)O1
A549
  IC50: 12.9 µM
Raji [1]
  IC50: 19.2 µM
K562 [2]
  IC50: 0.67 µM
HL-60
  IC50: 3.34 µM
Jurkat
  IC50: 12 µM
MCF7 [3]
  IC50: 5.9 µM
HeLa [4]
  IC50: 8.3 µM
MDA-MB-231
  IC50: 19.2 µM
[5]
  IC50 at 72 h: > 100 µM
K562 [6]
  Ratio IC50: >10

## CC(=O)O[C@H](COC(=O)c1ccccc1)[C@H]1OC(=O)C=C[C@H]1OC(=O)c1c(Cl)cc(Cl)cc1Cl
A549
  IC50: 5.02 µM
Raji [1]
  IC50: 23.6 µM
K562 [2]
  IC50: 11.9 µM
HL-60
  IC50: 22.9 µM
Jurkat
  IC50: 9.4 µM
MCF7 [3]
  IC50: 28.4 µM
HeLa [4]
  IC50: 8.71 µM
MDA-MB-231
  IC50: 23.4 µM
[5]
  IC50 at 72 h: > 100 µM

## CC(=O)O[C@H](COC(=O)c1ccccc1)[C@H]1OC(=O)C=C[C@H]1OC(=O)/C=C/c1ccc(F)cc1
A549
  IC50: 87.6 µM
Raji [1]
  IC50: 26.4 µM
K562 [2]
  IC50: 6.75 µM
HL-60
  IC50: 16.1 µM
Jurkat
  IC50: 28.6 µM
MCF7 [3]
  IC50: 5.28 µM
HeLa [4]
  IC50: 17.9 µM
MDA-MB-231
  IC50: 17.7 µM
[5]
  IC50 at 72 h: > 100 µM

## CC(=O)O[C@H](COC(=O)c1ccccc1)[C@H]1OC(=O)C=C[C@H]1O[Si](C)(C)C(C)(C)C
A549
  IC50: 12.1 µM
Raji [1]
  IC50: 18.8 µM
K562 [2]
  IC50: 6.72 µM
HL-60
  IC50: 11.6 µM
Jurkat
  IC50: 16.7 µM
MCF7 [3]
  IC50: 4.14 µM
HeLa [4]
  IC50: 9.96 µM
MDA-MB-231
  IC50: 35.4 µM
[5]
  IC50 at 72 h: > 100 µM

## CC1(C)O[C@H]2O[C@@H]3C=CC(=O)O[C@@H]3[C@H]2O1
A549
  IC50: 16.5 µM
Raji [1]
  IC50: 29.4 µM
K562 [2]
  IC50: 3.4 µM
HL-60
  IC50: 22.3 µM
Jurkat
  IC50: 27.2 µM
MCF7 [3]
  IC50: 8.26 µM
HeLa [4]
  IC50: 6.09 µM
MDA-MB-231
  IC50: 24.4 µM
[5]
  IC50 at 72 h: > 100 µM

## CC(=O)O[C@H](COC(=O)c1ccccc1)[C@H]1OC(=O)C=C[C@H]1OS(=O)(=O)c1ccc(C)cc1
A549
  IC50: 12.4 µM
Raji [1]
  IC50: 18.9 µM
K562 [2]
  IC50: 4.5 µM
HL-60
  IC50: 20.9 µM
Jurkat
  IC50: 26.6 µM
MCF7 [3]
  IC50: 11.3 µM
HeLa [4]
  IC50: 15.8 µM
MDA-MB-231
  IC50: 14.8 µM
[5]
  IC50 at 72 h: > 100 µM

## CC(=O)O[C@H](COC(=O)c1ccccc1)[C@H]1OC(=O)C=C[C@H]1OC(=O)C(c1ccccc1)c1ccccc1
A549
  IC50: 11 µM
Raji [1]
  IC50: 14 µM
K562 [2]
  IC50: 6.32 µM
HL-60
  IC50: 4.64 µM
Jurkat
  IC50: 14.5 µM
MCF7 [3]
  IC50: 2.83 µM
HeLa [4]
  IC50: 9.75 µM
MDA-MB-231
  IC50: 17.6 µM
[5]
  IC50 at 72 h: > 100 µM
MCF7 [7]
  Ratio IC50: >9

## CC(=O)O[C@H](COC(=O)c1ccccc1)[C@H]1OC(=O)C=C[C@H]1O[Si](c1ccccc1)(c1ccccc1)C(C)(C)C
A549
  IC50: 30.6 µM
Raji [1]
  IC50: 25.1 µM
HeLa [8]
  Ratio IC50: >2
K562 [2]
  IC50: 5.85 µM
HL-60
  IC50: 5.64 µM
Jurkat
  IC50: 19.7 µM
MCF7 [3]
  IC50: 9.39 µM
HeLa [4]
  IC50: 3.35 µM
MDA-MB-231
  IC50: 8.36 µM
[5]
  IC50 at 72 h: > 100 µM

## CC(=O)O[C@H](COC(=O)c1ccccc1)[C@H]1OC(=O)C=C[C@H]1OC(=O)/C=C/c1ccccc1
A549
  IC50: 8.55 µM
Raji [1]
  IC50: 3.3 µM
K562 [2]
  IC50: 0.76 µM
HL-60
  IC50: 6.36 µM
Jurkat
  IC50: 11.8 µM
MCF7 [3]
  IC50: 22.5 µM
HeLa [4]
  IC50: 7 µM
MDA-MB-231
  IC50: 4.29 µM
[5]
  IC50 at 72 h: > 100 µM
K562 [6]
  Ratio IC50: >10
Raji [9]
  Ratio IC50: >10

## CC(=O)O[C@@H]1C=CC(=O)O[C@@H]1[C@@H](COC(=O)c1ccccc1)OC(C)=O
[5]
  IC50 at 72 h: > 100 µM

## CC(=O)OC[C@@H](OC(C)=O)[C@H]1OC(=O)C=C[C@H]1OC(=O)c1ccccc1
A549
  IC50: 22.9 µM
Raji [1]
  IC50: 10.7 µM
K562 [2]
  IC50: 2.65 µM
HL-60
  IC50: 4.39 µM
Jurkat
  IC50: 18.3 µM
MCF7 [3]
  IC50: 5.01 µM
HeLa [4]
  IC50: 10.8 µM
MDA-MB-231
  IC50: 15.9 µM
[5]
  IC50 at 72 h: > 100 µM
